Results on three molecules are retold here after patent US9763923B2, “Composition for reducing senescence of cell or subject including BRAF inhibitor and use thereof” (Samsung Electronics Co., Ltd., priority 2015, dated 2017).

Each structure is given as a SMILES string.

Type in all cases: cell-based
For test [1], the system named is senescent human dermal fibroblast (HDF) M11 cells. Nature of the test: Relative proliferation rate of senescent cells (SYBR Green I DNA quantification). The settings on record: 5 μM, about 3 weeks, vs DMSO negative control. The protocol: (§1) In order to examine whether senescent cells proliferate in response to treatment with BRAF inhibitors, human dermal fibroblast (HDF) M11 cells taken from a child are cultured in Dulbecco's Modified Eagle's Medium (DMEM) containing a high concentration of glucose, glutamine, and pyruvate, and 10% (v/v) fetal bovine serum (FBS), and 1× penicillin/streptomycin at about 37° C. and 5% CO2 atmosphere, thereby obtaining senescent cells. As for the senescent cells, cells that are passaged 35 times and whose doubling time is about 10 days or longer are used.
The prepared senescent cells are inoculated at a density of 1000 cells/well in a 96-well plate. The BRAF inhibitor is added to the inoculated cells at a final concentration of 5 μM. SB590885, vemurafenib (PLX4032, RG7204), TAK-632, CEP-32496, GDC-0879, PLX-4720, ZM 336372, Sorafenib tosylate, Sorafenib, GW5074, Dabrafenib (GSK2118436), AZ 628, RAF265 (CHIR-265), and NVP-BHG712 are used as BRAF inhibiting drugs. Cells treated with dimethyl sulfoxide (DMSO) (Sigma-Aldrich) alone are used as a negative control group. The medium is replaced with a fresh medium containing the drug or DMSO alone once every four days. About 3 weeks after initial addition of the drug, 0.1% (w/v) SYBR Green I (Life Technologies, Cat. No. S-7563) is used to quantify DNA, and the number of cells is calculated from the DNA quantity measured.
The number of the senescent cells in the drug-treated group is compared to the number of the cells in the negative control group so as to calculate a relative proliferation rate. The relative proliferation rates of senescent cells treated with BRAF inhibitors to that of the negative control group are shown in FIG. 1.
The senescent cells prepared as described in 1 are inoculated at a density of 1000 cells/well in a 96-well plate. […]
Then, SYBR Green I (Life Technologies, Cat. No. S-7563) is used to quantify DNA in the senescent cells thus cultured, and the number of cells is calculated from the DNA quantity measured. […]

The test system is the same in test [2]. The test is described as follows: Lipofuscin accumulation by autofluorescence (FACS). The settings on record: 0.1 μM, about 3 weeks, vs DMSO. The protocol: as §1
(§2) As described in 1, 0.1 μM SB590885 is added to the prepared senescent cells, which are cultured in the presence of SB590885 for about 3 weeks. Cells treated with DMSO (Sigma-Adrich) alone are used as a negative control group.
As lipofuscin in senescent cells emits autofluorescence, accumulation of lipofuscin is analyzed by measuring the fluorescent radiation having a wavelength of 520 nm while irradiating the senescent cells with rays having a wavelength at about 488 nm using a FACSCaliber (Beckton Dickson). A relative autofluorescence ratio of the senescent cells cultured in the presence of SB590885 to the negative control group is calculated.
As described in 1, 0.1 μM TAK-632 is added to the prepared senescent cells, which are cultured in the presence of TAK-632 for about 3 weeks. Cells treated with DMSO (Sigma-Adrich) alone are used as a negative control group.
As described in 3(2), autofluorescence in the senescent cells is measured and a relative autofluorescence ratio of the senescent cells cultured in the presence of TAK-632 to the negative control group is calculated.
As described in 1, 0.1 μM vemurafenib is added to the prepared senescent cells, which are cultured in the presence of vemurafenib for about 3 weeks. Cells treated with DMSO (Sigma-Adrich) alone are used as a negative control group.
As described in 3.(2), autofluorescence in the senescent cells is measured and a relative autofluorescence ratio of the senescent cells cultured in the presence of vemurafenib to the negative control group is calculated.

The test system is the same in test [3]. Nature of the test: Mitochondrial reactive oxygen species (MitoSOX Red). The settings on record: 0.1 μM, about 3 weeks, vs DMSO. Here is the method:
as §1, §2
In order to measure mitochondrial function in senescent cells, the amount of reactive oxygen species (ROS) in the prepared senescent cells is measured using a MitoSOX™ Red Mitochondrial Superoxide indicator (Life technologies). A relative ROS amount of the senescent cells cultured in the presence of SB590885 to that of the negative control group is shown in FIG. 4B. […] Accordingly, SB590885 inhibits mitochondrial damage in senescent cells.
As described in 3(2), the amount of ROS in the senescent cells is measured. A relative ROS ratio of the senescent cells cultured in the presence of TAK-632 to the negative control group is calculated.
As described in 3.(2), the amount of ROS in the senescent cells is measured. A relative ROS ratio of the senescent cells cultured in the presence of vemurafenib to the negative control group is calculated.

For test [4] the test system is unchanged. Nature of the test: Lysosome accumulation (LysoTracker Blue DND-22, FACS). The settings on record: 0.1 μM, about 3 weeks, vs DMSO. The protocol: as §1, §2
In order to measure lysosome accumulation in senescent cells, the prepared senescent cells are stained using a LysoTracker®Blue DND-22 (Life Technologies, Cat. No. L-7525). The amount of lysosome is quantified by measuring the fluorescent radiation having a wavelength of 422 nm while irradiating the stained senescent cells with rays having a wavelength at about 373 nm using a FACSCaliber (Beckton Dickson). The amount (%) of lysosome in the cells cultured in the presence of SB590885 relative to that of the negative control group is shown in FIG. 4C.
As described in 3(2), the amount of lysosomes in senescent cells is measured and the amount (%) of lysosome in the cells cultured in the presence of TAK-632 relative to that of the negative control group is shown in FIG. 5C.
As described in 3.(2), the amount of lysosomes in senescent cells is measured and the amount (%) of lysosome in the cells cultured in the presence of vemurafenib relative to that of the negative control group is shown in FIG. 6C.

As to `CCCS(=O)(=O)Nc1ccc(F)c(C(=O)c2c[nH]c3ncc(-c4ccc(Cl)cc4)cc23)c1F` [vemurafenib], the “proliferation rate higher than the negative control group” value in test [1] is recorded as “about 30%”. Further, the “decrease in lipofuscin compared to negative control group” value (“decrease in lipofuscin” below) in test [2] is listed as “about 60%”. In addition, in test [3], the “decrease in the amount of ROS compared to negative control group” value (“decrease in the amount of ROS” below) is reported as “about 40%”. Also, in test [4], the “decrease in lysosome accumulation compared to negative control group” value (shortened to “decrease in lysosome accumulation”) is listed as “about 40%”.
Take `CN(C)CCOc1ccc(-c2nc(-c3ccncc3)c(-c3ccc4c(c3)CC/C4=N\O)[nH]2)cc1` [SB590885]: in test [1], the “proliferation rate higher than the negative control group” value is listed as “about 30%”. Further, in test [2], the “autofluorescence relative to negative control group” value is recorded as “about 28%” and the “decrease in lipofuscin” value is on record as 70%. Moreover, in test [3], the “ROS relative to negative control group” value was “about 38%” and the “decrease in the amount of ROS” value is recorded as “about 60%”. Also, the “decrease in lysosome accumulation” value in test [4] is listed as “about 25%”.
For `N#Cc1c(Oc2ccc(F)c(NC(=O)Cc3cccc(C(F)(F)F)c3)c2)ccc2nc(NC(=O)C3CC3)sc12` [TAK-632], in test [1], the “proliferation rate higher than the negative control group” value is “about 30%”. Further, in test [2], the “decrease in lipofuscin” value is recorded as about 48%. The “decrease in the amount of ROS” value in test [3] is given as about 40%. In test [4], the “decrease in lysosome accumulation” value is reported as about 40%.
